# Results: patent US6656963B2, “Indole-3-carbinol (I3C) derivatives and methods” (The Regents of the University of California, priority 1997, dated 2003)
# Entries after “also recorded” stand apart in the source; their conditions may differ. Read-outs that look alike come from different tables or passages of the source.
# Experiments:
# CDK6 [1] = experiment: Western and Northern blot of CDK6 in treated breast cancer cells; format: cell-based, human; conditions: for level of CDK6 protein (Western blot): cells treated with combinations of I3C and/or tamoxifen
# Description: For example, I3C derivatives may be analyzed by western blot to determine the level of CDK6 protein produced in treated or untreated human MCF7 breast cancer cells. In particular, cells are treated with varying concentrations, varying times alone or in the presence of particular sets of anti-estrogens; treatment with I3C may be used as a positive control. The cell extracts are then electrophoretically fractionated in SDS polyacrylamide gels, blotted onto nitrocellular membranes, the blotted proteins probed with CDK6 antibodies and the CDK6 protein visualized by autoradiography. […] For example, the levels of the other cyclin dependent kinases (CDK2 and CDK4), cell cycle activators (cyclin D 1, D2, D3 and E) or cell cycle inhibitors (p 15, 16, p21 or p27) that function at discrete times within G1 may be assessed in indole treated or untreated MCF7 breast cancer cells.
# To determine the mechanism by which I3C induces the G1 cell cycle arrest of human breast cancer cells, Western blot and Northern blot analyses were utilized to examine whether I3C treatment regulates the protein production and transcript expression of the cyclin dependent protein kinases (CDKs), cyclins and CDK Inhibitor components of the cell cycle that function within the G1 phase.
# [2] = system: estrogen receptor-deficient MDA-MB-231 breast cancer cells; experiment: [3H]thymidine incorporation in estrogen receptor-deficient breast cancer cells; format: cell-based, human; conditions: for growth inhibitory effect: 48 hours, 100 μM I3C, 10 μM tamoxifen, alone or combined
# Description: (§1) I3C effects on estrogen receptor (ER) function was monitored by transient transfection of an ERE-vit-CAT reporter plasmid containing the vitellogenin promoter with three estrogen response elements linked upstream and driving the bacterial chloramphenicol acetyl transferase (CAT) gene.
# (§2) Antiproliferative effects of a combination of I3C and the anti-estrogen tamoxifen on breast cancer cell growth: Estrogen receptor (ER)-containing MCF7 or ER-deficient MDA-MB-231 breast cancer cells were treated for 48 hours with 100 μM I3C or 10 μM tamoxifen alone or with a combination of both reagents, and [^3H]thymidine incorporation used as a measure of cell proliferation.
# MCF-7 cells = experiment: Flow cytometry of nuclear DNA content (propidium iodide), cell cycle arrest; format: cell-based, human; conditions: for percentage of MCF7 cells arrested in G1: I3C, tamoxifen alone or combined
# Description: (§3) Particularly suitable assays for I3C derivatives include evaluating their ability to induce a G1 cell cycle arrest and to inhibit CDK6 protein levels in cultured MCF7 breast cancer cells. For the cell proliferative asssays, we have sucessfully employed several methods that we have previously described for rodent mammary tumor cells (44, 51). Briefly, human MCF7 breast cancer cells are cultured at subconfluency in medium supplemented with 10% fetal bovine serum and […] insulin. […] The incorporation of [^3H]thymidine (in a two hour pulse) into 10% trichloroacetic acid precipitable material are used to monitor and quantitate DNA synthesis and provides a direct measure of the proliferative state of the cells.
# To assess the cell cycle effects of I3C, MCF-7 cells treated with or without 100 μM I3C for 96 hours were hypotonically lysed in the presence of propidium iodide to fluorescently stain the nuclear DNA.
# as §2
# estrogen receptor (ER) = experiment: ERE-vit-CAT reporter plasmid activity in transiently transfected MCF7 cells; format: cell-based, human; conditions: 48 hours; for effect on ERE-vit-CAT activity: estrogen 100 nM
# Description: Cancer cells are also treated with combinations of indole-derivatives and either steroidal or nonsteroidal anti-estrogens, such as tamoxifen, ICI 164384 and raloxifene (39, 52), at both suboptimal and optimal doses to determine the ability of a given I3C derivative to syngerize with the anti-estrogens in the growth suppression response. […] For example, MCF7 cells are transiently transfected with the ERE-vit-CAT reporter plasmid, which contains three estrogen responsive elements, and the cells monitored for changes in estrogen regulated CAT activity. For comparison, the effects of the I3C derivatives on growth of the estrogen-non-responsive MDA-MB-231 breast cell line are examined. […] Therefore, purified indole derivatives is also assayed in MCF7 cells for Ah receptor affinity, activation of Ah receptor binding to DNA, and activation of an Ah receptor-responsive CAT reporter (17).
# as §1
# cyclin D1 = conditions: estrogen responsive breast cancer cells; cited from earlier work
# [3] = system: human MCF7 breast cancer cells; conditions: 50 μM, long term treatment (up to six weeks), high density cultures; cited from earlier work
# CDK6 [4] = experiment: CDK6 protein expression in estrogen receptor negative cell lines; format: cell-based
# Description: To determine the mechanism by which I3C induces the G1 cell cycle arrest of human breast cancer cells, Western blot and Northern blot analyses were utilized to examine whether I3C treatment regulates the protein production and transcript expression of the cyclin dependent protein kinases (CDKs), cyclins and CDK Inhibitor components of the cell cycle that function within the G1 phase. […] In particular, CDK6 transcript levels dropped about 30% in 5 hrs and 60% by 15 hours. […] Furthermore, 13C inhibits CDK6 protein expression in estrogen receptor negative cell lines. […] This novel observation provides a basis for a molecular diagnostic assay to determine the sensitivity of a given tumor sample to I3C growth suppression.
# CDK4 = experiment: Western/Northern blot of CDK4 expression; format: cell-based, human; conditions: same conditions as CDK6 reduction
# Description: (§4) Our finding that I3C inhibits the protein levels of the CDK6 cell cycle component provides a unique molecular assay to determine the ability of a given I3C derivative to induce a cell cycle arrest of cancer cells. For example, I3C derivatives may be analyzed by western blot to determine the level of CDK6 protein produced in treated or untreated human MCF7 breast cancer cells. In particular, cells are treated with varying concentrations, varying times alone or in the presence of particular sets of anti-estrogens; treatment with I3C may be used as a positive control. The cell extracts are then electrophoretically fractionated in SDS polyacrylamide gels, blotted onto nitrocellular membranes, the blotted proteins probed with CDK6 antibodies and the CDK6 protein visualized by autoradiography. Other G1 acting cell cycle genes maybe examined to confirm that a given I3C derivative is acting similarly to I3C itself. For example, the levels of the other cyclin dependent kinases (CDK2 and CDK4), cell cycle activators (cyclin D 1, D2, D3 and E) or cell cycle inhibitors (p 15, 16, p21 or p27) that function at discrete times within G1 may be assessed in indole treated or untreated MCF7 breast cancer cells. […]
# [5] = gastric acid; cited from earlier work
# [6] = system: estradiol 2-hydroxylation; conditions: oral, around 500 mg daily for one week, men and women; cited from earlier work
# [7] = system: DMBA-induced mammary tumors; conditions: administered prior to and during DMBA treatment; cited from earlier work
# [8] = system: spontaneous mammary tumors; conditions: cited from earlier work
# Ah (dioxin) receptor = conditions: cited from earlier work
# CDK2 = experiment: Western/Northern blot of CDK2 expression; format: cell-based, human; conditions: same conditions as CDK6 reduction
# Description: as §4
# [9] = system: 7,12-dimethyl-benz(α)anthracene (DMBA)-induced mammary tumors; conditions: cited from earlier work
# p21 cell cycle inhibitor = experiment: Western blot of p21 cell cycle inhibitor level; format: cell-based, human; conditions: only after 72-96 hours of treatment
# Description: Western blot analysis has shown that I3C stimulates the level of the p21 cell cycle inhibitor by approximately 3-4 fold only after 72-96 hours of indole treatment, which is when the cells begin to display their maximal cell cycle arrest. This response is not likely to initiate the cell cycle arrest, though provides another useful molecular marker to in the examination of tissue biopsies.
# [10] = system: MCF7 human breast cancer cells; experiment: cells; conditions: for cell proliferation: 48 hours
# Description: as §3, §2
# [11] = system: methylnitrosourea-induced mammary tumors; conditions: administered prior to and during methylnitrosourea treatment; cited from earlier work
# cell growth = experiment: Inhibition of cell growth; format: cell-based
compound,measurement,setting,value
CC/C(=C(\c1ccccc1)c1ccc(OCCN(C)C)cc1)c1ccccc1 [tamoxifen],level of CDK6 protein (Western blot),CDK6 [1],not
same,growth inhibitory effect,[2],no growth inhibitory effects
same,percentage of MCF7 cells arrested in G1,MCF-7 cells,70%
same,inhibition of basal ERE-vit-CAT reporter plasmid activity,estrogen receptor (ER); 10% fetal bovine serum,70%
same,cyclin D1 levels,cyclin D1,reduces
"OCc1c[nH]c2ccccc12 [Compound I3C, Indole-3-carbinol]",estradiol-induced proliferation,[3],blocked
same,time of indole treatment to reduced level of CDK6 protein,CDK6 [1]; 48 hours prior to complete cell cycle arrest,≤ 24 h
same,drop of CDK6 transcript levels,CDK6 [1]; by 15 hours,~60%
same,level of CDK6 protein (Western blot),CDK6 [1],reduced the level of CDK6 protein
same,drop of CDK6 transcript levels,CDK6 [1]; in 5 hrs,about 30%
same,CDK6 protein expression,CDK6 [4],inhibits
same,effect on CDK4 expression,CDK4,no effect
same,stability in acidic solution,[5],extremely unstable
same,growth inhibitory effect,[2],strong growth suppression effect
same,inhibition at 100 µM,"[2]; Homo sapiens, MDA-MB-231, 100 μM, read-out: inhibition of proliferation ([3H]thymidine incorporation)",> 50%
same,increase in estradiol 2-hydroxylation,[6],approximately 50%
same,reduction of mammary tumor incidence,[7],≤ 95%
same,reduction of spontaneous mammary tumor incidence and multiplicity,"[8]; diets with 500 or 2000 p.p.m., both doses",ca. 50%
same,tumor latency,[8]; high dose group,prolonged
same,cells remaining with G2/M DNA content,"MCF-7 cells; 100 μM, 96 hours",approximately 13%
same,cells with 2n DNA content (G1 block),"MCF-7 cells; 100 μM, 96 hours",75%
same,percentage of MCF7 cells arrested in G1,MCF-7 cells,75%
same,Kd,Ah (dioxin) receptor,27 µM
same,effect on ERE-vit-CAT activity,estrogen receptor (ER),no effect
same,effect on CDK2 expression,CDK2,no effect
same,reduction of incidence of DMBA-induced mammary tumors,[9]; in the diet or by oral intubation prior to carcinogen,70-80%
same,stimulation of p21 level,p21 cell cycle inhibitor,3-4 fold
same,cell morphology,[10]; 100 μM,no morphology change
same,cell proliferation,[10]; 100 μM,near maximally growth arrested
same,cell morphology,[10]; 300 μM,changed to a more elongated phenotype
same,cell proliferation,[10]; 300 μM,maximally inhibited
same,IC50,"[10]; Homo sapiens, MCF7, read-out: half-maximal response, inhibition of [3H]thymidine incorporation",30 µM
same,inhibition at 100 µM,"[10]; Homo sapiens, MCF7, read-out: inhibition of MCF7 DNA synthesis ([3H]thymidine incorporation) compared to vehicle controls, 48 hours, 100 μM I3C, 10 μM tamoxifen, alone or combined",~70%
same,inhibition at 100 µM,"[10]; Homo sapiens, MCF7, read-out: inhibition of [3H]thymidine incorporation, 100 μM, after 72 hours",80%
same,inhibition at 100 µM,"[10]; Homo sapiens, MCF7, read-out: inhibition of [3H]thymidine incorporation, 100 μM, after 96 hours",> 90%
same,cell death,[10]; prolonged exposure (5 days),did not result in any detectable cell death
same,reversibility of growth suppression,[10]; time course of addition and withdrawal,completely reversible
same,rate of [3H]thymidine incorporation after withdrawal,[10]; within 48 hours of withdrawal from 48 or 72 hour treated cells,approximately equivalent to untreated cells
same,reduction of mammary tumor incidence,[11],≤ 65%
estrogen,effect on ERE-vit-CAT activity,estrogen receptor (ER),stimulated
"c1ccc2c(Cc3c[nH]c4ccccc34)c[nH]c2c1 [DIM, 3,3′-diindolylmethane]",Kd,Ah (dioxin) receptor,0.09 µM
same,reduction of DMBA-induced mammary tumors,[9]; in vivo,highly effective
same,suppression of MCF7 cell growth,[10]; acid products of I3C,do not suppress growth; also recorded: failed to suppress the growth
"CC(=O)OCc1cn(C(C)=O)c2ccccc12 [N,O-diacetyl-indole-3-carbinol]",inhibition of cell growth,cell growth,particularly effective inhibitors of cell growth
